This series can be described thus: Testing of the NIR sensitizers in photoinitiator mixtures (exposure of thin coats with halogen lamp). To be noted: 0.5% by weight NIR sensitizer and 1.5% by weight boronate salt X in the paint base materials. The procedure: The two aforementioned paint base materials were admixed with 0.5% by weight of each NIR sensitizer and 1.5% by weight of the boronate salt X^− and the mixtures were stirred intensively. Thin coats (coat thickness approximately 50 μm) were produced with the resulting mixtures between two glass plates, using spacer sheets. These coats were exposed using a 250 W halogen lamp (distance approximately 15 cm) for 1 minute.
Turning to `CCN1/C(=C/C=C2\CCCC(/C=C/C3=[N+](CC)c4ccc(C#N)cc4C3(C)C)=C2Cl)C(C)(C)c2cc(C#N)ccc21` [Compound B12], the “dissolution of the NIR sensitizer in the paint base material” value was “not completely dissolved”.
To `CN1\C(=C/C=C/C=C/C=C/C2=[N+](C)c3ccc(Cl)cc3C2(C)C)C(C)(C)c2cc(Cl)ccc21` [Compound B7] belongs “not completely dissolved”; to `CN1\C(=C/C=C/C=C/C=C/C2=[N+](C)c3ccc(Cl)cc3C2(C)C)C(C)(C)c2cc(Cl)ccc21` [Compound A7], “fully dissolved”; to `CCN1/C(=C/C=C2\CCCC(/C=C/C3=[N+](CC)c4ccc(C(F)(F)F)cc4C3(C)C)=C2Cl)C(C)(C)c2cc(C(F)(F)F)ccc21` [Compound B11], “not completely dissolved”.
To `CCN1/C(=C/C=C2\CCCC(/C=C/C3=[N+](CC)c4ccc(C(F)(F)F)cc4C3(C)C)=C2Cl)C(C)(C)c2cc(C(F)(F)F)ccc21` [Compound A11] belongs “fully dissolved”.
To `CCN1/C(=C/C=C2\CCCC(/C=C/C3=[N+](CC)c4ccc(C#N)cc4C3(C)C)=C2Cl)C(C)(C)c2cc(C#N)ccc21` [Compound A12] belongs “fully dissolved”.
